Experimental findings from publication PMC12728570, “Sphingomyelin synthase inhibitors from edible mushrooms prevent overweight and improve vitamin D homeostasis in a mouse model of diet-induced obesity” (Frontiers in Nutrition, 2025) are described below.

The test system of assay [1] is T1, SMS2 (sphingomyelin synthase 2).
T1 construct: gene SGMS2; stably expressed in SMS1/SMS2-deficient mouse embryonic fibroblasts (ZS2), cell lysate
In words: HPLC-fluorescence enzyme assay, ZS2 cell lysate. In kind it is biochemical. The following applies: Path 2: 5 μM C6-NBD-ceramide to NBD-SM; 5 μM C6-NBD-PC present; 37 °C, 30 min preincubation. From the text:
HPLC-fluorescence enzyme assay, ZS2 cell lysate on SMS2 (sphingomyelin synthase 2)

Assay [2] relates to T2, SMS1 (sphingomyelin synthase 1).
T2 construct: gene SGMS1; stably expressed in SMS1/SMS2-deficient mouse embryonic fibroblasts (ZS2), cell lysate
In words: HPLC-fluorescence enzyme assay, ZS2 cell lysate. In kind it is biochemical. The settings on record: 37 °C, 30 min preincubation. The text has this:
HPLC-fluorescence enzyme assay, ZS2 cell lysate on SMS1 (sphingomyelin synthase 1)

Structures are written as SMILES. Where two headings read alike, the source gives them in different places.

Turning to `CC(C)=CCC/C(C)=C/CC/C(C)=C/Cc1c(O)cc(C)c(C(=O)O)c1O` [grifolic acid], the IC50 in assay [1] was determined as 2.5 µM; in assay [2] (read-out: IC50 (μM) / SMS1 / Path 1) it was 3 µM.

`CC(C)=CCC/C(C)=C/CC/C(C)=C/Cc1c(O)cc(C)cc1O` [grifolin]: the IC50 in assay [1] came to 3 µM; in assay [2] (Path 2: 5 μM C6-NBD-ceramide to NBD-SM, 5 μM C6-NBD-PC present), 0.6 µM.
